US20050282810A1, “Oxindole derivatives” (priority 2000, published 2005)
pIC50: −log10 of the molar value.

How the values were obtained:
TrkA = target: T1, TrkA (Homo sapiens, UniProt P04629); experiment: TrkA tyrosine kinase substrate phosphorylation assay (Src peptide, 33P-ATP, p81 filter plates); format: biochemical; settings: GST-fusion of TrkA intracellular domain, 30 uM ATP, 50 uM Src peptide, RT 120 min
T1 construct: The enzyme is a GST-fusion of the intracellular domain expressed in SF9 cells; GST; host or cells: SF9 insect cells
Experimental: The compounds of the present invention have valuable pharmacologic properties. Different compounds from this class are particularly effective at inhibiting the trkA kinase enzyme at concentrations that range from 0.0001 to 1 μM and additionally show specificity relative to other kinases. Substrate phosphorylation assays were carried out as follows:
Screening format: Tyrosine kinase activity is being measured using a synthetic peptide substrate. The enzyme is a GST-fusion of the intracellular domain expressed in SF9 cells. The enzyme is expressed and purified by Regeneron. The enzyme is preincubated with cold ATP and Mg to allow autophosphorylation prior to running the screen. This increases the initial rate of catalysis approximately 3 fold. The assay is performed in 96 well microtitre plates, and reaction products are detected following filtration through millipore p81 phosphocellulose plates.

T1 sequence (P04629 440-796 limits assumed, species assumed): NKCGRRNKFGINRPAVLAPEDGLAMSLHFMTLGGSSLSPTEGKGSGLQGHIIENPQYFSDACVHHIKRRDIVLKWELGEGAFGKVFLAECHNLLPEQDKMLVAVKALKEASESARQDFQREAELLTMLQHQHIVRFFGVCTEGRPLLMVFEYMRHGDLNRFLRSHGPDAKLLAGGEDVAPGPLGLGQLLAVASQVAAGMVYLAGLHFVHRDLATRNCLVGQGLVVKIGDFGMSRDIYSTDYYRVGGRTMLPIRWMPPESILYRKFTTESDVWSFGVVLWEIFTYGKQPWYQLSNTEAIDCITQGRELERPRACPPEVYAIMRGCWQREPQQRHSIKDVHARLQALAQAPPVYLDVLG

pIC50 (TrkA) | melting point [°C] | Structure (SMILES)
> 8.00 |  | Nc1nnc(-c2cccc(N/C=C3\C(=O)Nc4ccc5[nH]nnc5c43)c2)o1 [Example 4, (8Z)-8-{[3-(5-amino-1,3,4-oxadiazol-2-yl)anilino]methylene}-6,8-dihydro[1,2,3]triazolo[4,5-e]indol-7(3H)-one]
> 8.00 |  | CCC1(c2ccc(N/C=C3\C(=O)Nc4ccccc43)cc2)CCC(=O)NC1=O (stereo not shown) [Example 3, 3-ethyl-3-(4-{[(Z)-(2-oxo-1,2-dihydro-3H-indol-3-ylidene)methyl]amino}phenyl)-2,6-piperidinedione]
> 8.00 |  | O=C1Nc2ccccc2/C1=C/Nc1ccc2[nH]c(=O)[nH]c2c1 [Example 1, 5-{[(Z)-(2-oxo-1,2-dihydro-3H-indol-3-ylidene)methyl]amino}-1,3-dihydro-2H-benzimidazol-2-one]
7.00 to 8.00 |  | O=C1Nc2ccccc2/C1=C/Nc1ccc(-c2nc[nH]n2)cc1 [Example 6, (3Z)-3-{[4-(1H-1,2,4-triazol-3-yl)anilino]methylene}-1,3-dihydro-2H-indol-2-one]
> 8.00 |  | O=C1Nc2ccccc2/C1=C/Nc1ccc(-n2cncn2)cc1 [Example 2, (3Z)-3-{[4-(1H-1,2,4-triazol-1-yl)anilino]-methylene}-1,3-dihydro-2H-indol-2-one]
7.00 to 8.00 | > 250 | NC(=O)Cc1ccc(N/C=C2\C(=O)Nc3ccccc32)cc1 [Example 5, 2-(4-{[(Z)-(2-oxo-1,2-dihydro-3H-indol-3-ylidene)methyl]amino}phenyl)acetamide]
